The structures appear in SMILES notation. Like-named read-outs stand apart in the source and are kept apart here.

One test has as its system ABCB1, ABCC1, and ABCG2. As to the kind of experiment: Specificity screen against other ABC transporters: calcein AM (A2780/ADR), daunorubicin (H69AR) and pheophorbide A (MDCK II BCRP) assays. It is filed as cell-based. As to conditions: 10 µM compound; Supplementary Fig. S3; result in words. The text has this:
Apart from the high hit rate, potency, and structural diversity of the output molecules, it is important to note that the multitarget dataset cross-annotated the molecular-structural and physicochemical information of ligands on a multitude of targets. In order to assess its ABCA-specificity, we tested the hit compounds 4, 7, 8, 11, 13, 28, 29, 30, 32, 41, 46, 47, 50, 58, and 59 against ABC transporters of three different subfamilies, namely ABCB1, ABCC1, and ABCG2[40]. […] On the other hand, it is unlikely that the compounds bear selectivity toward ABCA1, which can be seen as opportunity to explore other ABCA transporters as well, and warrants future investigations.
Suppl ementary Fig. 3 Biological Assessment of hi t compounds 4 , 7, 8 , 11 , 13 , 28, 29, 30, 32,
cal ce i n AM (a), daunorubicin (b), and pheophorbide A (c) assays using ABCB1-expressing
A 2780/ A DR (a), A BCC 1- expressi ng H 69A R (b), and ABCG2-expressing MDCK II BCRP (c) cells as
2. Möhl e, L. , et al . ABC Transporter C1 Prevents Dimethyl Fumarate from Targeting
Alzheimer's Disease. Biology (Basel) 12 ( 7) , 932,
(1 picture or pasted object on this page, not shown here)

The target of a further test is ABCA1 (Mus musculus, UniProt P41233). As to the kind of experiment: cell-based.
Chain of ABCA1 (P41233 whole entry): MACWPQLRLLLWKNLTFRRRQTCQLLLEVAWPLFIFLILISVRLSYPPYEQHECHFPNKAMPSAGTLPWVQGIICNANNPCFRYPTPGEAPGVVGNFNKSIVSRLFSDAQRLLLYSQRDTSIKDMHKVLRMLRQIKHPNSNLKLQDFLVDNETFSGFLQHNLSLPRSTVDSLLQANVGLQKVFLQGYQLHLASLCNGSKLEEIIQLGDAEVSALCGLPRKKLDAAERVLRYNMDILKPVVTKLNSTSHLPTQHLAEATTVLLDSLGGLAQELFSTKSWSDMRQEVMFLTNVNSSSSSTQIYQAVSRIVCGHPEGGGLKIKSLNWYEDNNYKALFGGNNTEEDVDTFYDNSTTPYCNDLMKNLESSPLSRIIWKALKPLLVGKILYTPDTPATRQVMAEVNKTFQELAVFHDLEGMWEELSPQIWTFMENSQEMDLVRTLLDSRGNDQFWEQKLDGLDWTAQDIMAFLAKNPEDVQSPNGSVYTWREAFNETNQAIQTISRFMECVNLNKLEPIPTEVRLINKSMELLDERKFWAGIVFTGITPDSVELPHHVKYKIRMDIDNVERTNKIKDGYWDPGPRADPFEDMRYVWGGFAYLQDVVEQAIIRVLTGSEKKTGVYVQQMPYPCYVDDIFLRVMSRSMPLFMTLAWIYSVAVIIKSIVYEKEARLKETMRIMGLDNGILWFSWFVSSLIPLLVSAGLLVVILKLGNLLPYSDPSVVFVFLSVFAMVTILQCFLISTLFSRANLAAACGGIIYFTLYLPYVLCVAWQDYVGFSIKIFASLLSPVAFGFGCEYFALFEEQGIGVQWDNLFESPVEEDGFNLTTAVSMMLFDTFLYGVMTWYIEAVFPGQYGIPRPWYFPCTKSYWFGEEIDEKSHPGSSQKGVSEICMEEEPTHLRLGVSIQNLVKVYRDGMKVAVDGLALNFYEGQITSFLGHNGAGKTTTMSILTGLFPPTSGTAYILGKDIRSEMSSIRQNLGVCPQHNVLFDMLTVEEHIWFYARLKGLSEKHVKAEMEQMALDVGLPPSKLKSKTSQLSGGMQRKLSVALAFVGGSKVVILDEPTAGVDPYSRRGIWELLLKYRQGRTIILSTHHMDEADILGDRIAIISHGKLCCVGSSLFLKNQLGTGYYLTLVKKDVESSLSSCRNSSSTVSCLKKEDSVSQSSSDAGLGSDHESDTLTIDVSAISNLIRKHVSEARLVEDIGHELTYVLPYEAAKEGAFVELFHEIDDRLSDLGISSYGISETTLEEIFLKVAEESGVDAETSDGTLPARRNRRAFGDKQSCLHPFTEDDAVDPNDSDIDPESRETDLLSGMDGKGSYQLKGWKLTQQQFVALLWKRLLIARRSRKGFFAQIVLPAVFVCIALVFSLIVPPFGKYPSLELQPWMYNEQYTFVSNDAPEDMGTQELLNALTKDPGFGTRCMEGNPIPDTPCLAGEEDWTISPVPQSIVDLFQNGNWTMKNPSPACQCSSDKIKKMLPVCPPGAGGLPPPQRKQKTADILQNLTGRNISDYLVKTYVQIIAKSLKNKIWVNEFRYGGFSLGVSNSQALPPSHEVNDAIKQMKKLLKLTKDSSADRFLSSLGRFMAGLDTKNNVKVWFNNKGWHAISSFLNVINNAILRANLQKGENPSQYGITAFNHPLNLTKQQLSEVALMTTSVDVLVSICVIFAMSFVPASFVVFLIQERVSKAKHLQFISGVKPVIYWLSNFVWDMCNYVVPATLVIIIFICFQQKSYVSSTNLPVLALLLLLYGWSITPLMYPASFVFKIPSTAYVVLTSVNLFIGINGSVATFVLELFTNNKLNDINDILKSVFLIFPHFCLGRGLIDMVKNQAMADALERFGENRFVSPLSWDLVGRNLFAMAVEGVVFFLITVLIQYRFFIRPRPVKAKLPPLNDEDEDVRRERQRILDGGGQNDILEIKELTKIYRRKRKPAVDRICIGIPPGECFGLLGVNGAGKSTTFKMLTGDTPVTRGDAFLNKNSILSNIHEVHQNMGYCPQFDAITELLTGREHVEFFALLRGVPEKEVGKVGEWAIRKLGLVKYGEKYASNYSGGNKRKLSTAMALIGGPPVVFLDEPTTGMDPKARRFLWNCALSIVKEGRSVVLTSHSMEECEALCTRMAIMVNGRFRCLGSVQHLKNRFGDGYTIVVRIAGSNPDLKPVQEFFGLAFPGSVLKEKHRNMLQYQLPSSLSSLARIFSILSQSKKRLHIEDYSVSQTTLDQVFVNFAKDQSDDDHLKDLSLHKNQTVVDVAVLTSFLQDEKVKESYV
[1] abbreviates: IC50, full concentration-effect curves, Fig. 4(b), mean ± SEM of at least three independent experiments, J774A.1 cells.

Experimental for ABCA1: In order to validate the prediction capabilities of the presented workflow, these 66 molecules were assessed in one of the most commonly used assessment platforms for ABCA1 function[21], namely a 25-NBD-cholesterol assay and ABCA1-expressing murine J774A.1 macrophages [TB-67, American Type Culture Collection (ATCC); cultured in Dulbecco’s modified eagle medium (DMEM; Biowest, Nuaillé, France)].

As to `COCCc1ccc(OCC(O)CNC(=O)C2CC(F)(F)CCC2(C)C)cc1` (centres unmarked) [Compound 11], the “inhibition of other ABC transporters (ABCB1, ABCC1, ABCG2)” value in the test on ABCB1, ABCC1, and ABCG2 is reported as “least inhibition of other ABC transporters”. Further, the IC50 (usually the concentration at which inhibition is half-maximal) was 5.08 ± 0.62 µM against ABCA1 and 8.76 ± 1.04 µM against ABCA1 (setting [1]).
Take `COc1cc(OC)c2cc(C(=O)N3C[C@@H](O)CC4(CCCC4)C3)[nH]c2c1OC` [Compound 47]: the IC50 amounted to 21.5 ± 3.4 µM against ABCA1 and 18.9 ± 2.3 µM on ABCA1 (setting [1]).
Take `COc1ccc2c(N3C[C@H](O)[C@H](O)CC4(CCCC4)C3)ncnc2c1F` [Compound 59]: in the test on ABCB1, ABCC1, and ABCG2, the “inhibition of other ABC transporters (ABCB1, ABCC1, ABCG2)” value is “significant inhibition against either two or three of the assessed transporters”. Also, the IC50 against ABCA1 is 9.12 ± 2.9 µM; against ABCA1 (setting [1]) it was 21.2 ± 0.6 µM.
